Test results as given in patent US6635641B2 (Agouron Pharmaceuticals, Inc., priority 2000, dated 2003).

Legend:
[1] = biological target: T1, CDK4/Cyclin D3 complex (Homo sapiens, UniProt P11802); assay: CDK4/Cyclin D assay ([32P]ATP incorporation into Rb fragment); format: biochemical; conditions: read-out: CDK4 percent inhibition
T1 construct: made in house; host or cells: insect cells co-infected with baculovirus vectors
Method: A complex of human CDK4 and cyclin D3, or a complex of cyclin D1 and a fusion protein of human CDK4 and glutathione-S-transferase (GST-CDK4), was purified using traditional biochemical chromatographic techniques from insect cells that had been co-infected with the corresponding baculovirus expression vectors.
Cyclin-dependent kinase activity was measured by quantifying the enzyme-catalyzed, time-dependent incorporation of radioactive phosphate from [^32P]ATP into a recombinant fragment of the retinoblastoma protein. Unless noted otherwise, assays were performed in 96-well plates in a total volume of 50 μL, in the presence of 10 mM HEPES (N-[2-hydroxyethyl]piperazine-N′-[2-ethanesulfonic acid]) (pH 7.4), 10 mM MgCl2, 25 μM adenosine triphosphate (ATP), 1 mg/mL ovalbumin, 5 μg/mL leupeptin, 1 mM dithiothreitol, 10 mM β-glycerophosphate, 0.1 mM sodium vanadate, 1 mM sodium fluoride, 2.5 mM ethylene glycol-bis(β-aminoethyl ether)-N,N,N′N′-tetraacetic acid (EGTA), 2% (v/v) dimethylsulfoxide, and 0.03-0.2 μCi [^32P]ATP. The substrate (0.3-0.5 μg) was purified recombinant retinoblastoma protein fragment (Rb) (residues 386-928 of the native retinoblastoma protein; 62.3 kDa, containing the majority of the phosphorylation sites found in the native 106-kDa protein, as well as a tag of six histidine residues for ease of purification). Reactions were initiated with CDK2 (150 nM CDK2/Cyclin A complex) or CDK4 (50 nM CDK4/Cyclin D3 complex), incubated at 30° C., and terminated after 20 minutes by the addition of ethylenediaminetetraacetic acid (EDTA) to 250 mM. The phosphorylated substrate was then captured on a nitrocellulose membrane using a 96-well filtration manifold, and unincorporated radioactivity was removed by repeated washing with 0.85% phosphoric acid. Radioactivity was quantified by exposing the dried nitrocellulose membranes to a phosphorimager. Apparent Ki values were measured by assaying enzyme activity in the presence of different compound concentrations and subtracting the background radioactivity measured in the absence of enzyme. The kinetic parameters (kcat, Km for ATP) were measured for each enzyme under the usual assay conditions by determining the dependence of initial rates on ATP concentration. The data were fit to an equation for competitive inhibition using Kaleidagraph (Synergy Software), or were fit to an equation for competitive tight-binding inhibition using the software KineTic (BioKin, Ltd.). Measured Ki values for known inhibitors against CDK4 and CDK2 agreed with published IC50 values. The specific activity of CDK4 was the same whether complexed to full-length cyclin D3 or the truncated Cyclin D3 construct; both complexes also yielded very similar Ki values for selected inhibitors.

[2] = biological target: T2, phosphorylated VEGF-R2Δ50 (FLVK-P) (Homo sapiens, UniProt P35968, DEL940-989/E990V); assay: VEGF-R2 coupled spectrophotometric assay, phosphorylated construct (FLVK-P); format: biochemical
T2 construct: VEGF-R2Δ50 contains residues 806-939 and 990-1171; made in house; host or cells: baculovirus/insect cells
Method in brief: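 Baculovirus-expressed VEGF-R2Δ50 (residues 806-939/990-1171, E990V), optionally autophosphorylated; ADP formation coupled via PK/LDH to NADH oxidation at 340 nm, pH 7.5 Hepes. FLVK-P: 1 mM ATP, 5.1 mM poly(E4Y1), 25 mM MgCl2; FLVK: 3 mM ATP, 20 mM poly(E4Y1), 60 mM MgCl2, 2 mM MnCl2. Ki from activity over compound concentrations.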

T2 sequence (P35968 with tags, fused parts or gaps DEL940-989/E990V limits assumed): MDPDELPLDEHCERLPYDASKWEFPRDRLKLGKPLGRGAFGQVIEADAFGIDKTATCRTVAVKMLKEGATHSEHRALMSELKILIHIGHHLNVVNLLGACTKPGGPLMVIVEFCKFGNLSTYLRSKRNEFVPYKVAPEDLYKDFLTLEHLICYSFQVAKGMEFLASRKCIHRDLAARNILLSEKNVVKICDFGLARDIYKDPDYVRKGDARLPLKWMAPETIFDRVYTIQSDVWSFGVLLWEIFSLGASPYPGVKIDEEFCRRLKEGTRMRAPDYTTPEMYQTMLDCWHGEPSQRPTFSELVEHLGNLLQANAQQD
T1 sequence (P11802 whole entry, the tested form may be a part): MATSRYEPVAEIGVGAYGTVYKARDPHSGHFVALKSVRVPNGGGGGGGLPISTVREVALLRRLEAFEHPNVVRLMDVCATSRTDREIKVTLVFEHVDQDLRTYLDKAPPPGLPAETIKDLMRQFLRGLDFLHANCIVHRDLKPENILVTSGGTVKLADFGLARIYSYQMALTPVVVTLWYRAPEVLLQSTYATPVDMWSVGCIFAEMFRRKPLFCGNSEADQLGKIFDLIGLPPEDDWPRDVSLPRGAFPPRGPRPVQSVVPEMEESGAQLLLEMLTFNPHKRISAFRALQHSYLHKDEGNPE
T1 sequence (P30281 whole entry partner, the tested form may be a part): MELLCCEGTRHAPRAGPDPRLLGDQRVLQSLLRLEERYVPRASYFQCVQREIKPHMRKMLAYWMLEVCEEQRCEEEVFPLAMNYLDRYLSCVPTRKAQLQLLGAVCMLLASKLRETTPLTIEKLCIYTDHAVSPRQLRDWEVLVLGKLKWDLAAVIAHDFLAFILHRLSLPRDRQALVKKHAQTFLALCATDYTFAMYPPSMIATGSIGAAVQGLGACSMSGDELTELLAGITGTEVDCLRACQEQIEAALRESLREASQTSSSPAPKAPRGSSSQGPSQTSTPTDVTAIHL

| inhibition at 1 µM [1] [%] | Ki [2] [nM] | inhibition at 100 µM ([1]; @ 100 μM) [%] | SMILES |
| --- | --- | --- | --- |
| 16 | 0.17 |  | O=C(Nc1ccc(N2CCCC2)c(C(F)(F)F)c1)c1cccc(CCc2cc(Nc3cccnc3)n[nH]2)c1 [Example G-11] |
| 19 | 3.74 |  | CC(=O)Nc1ccc(COc2cccc(C(=O)Nc3ccc4nc(C)ccc4c3)c2)cn1 [Example N-1, 3-(6-Acetylaminopyridin-3-yl)methoxy-N-(2-methyl-quinolin-6-yl)-benzamide] |
| 17 | 2.19 |  | Cc1cc(NC(=O)c2ccc(F)c(OCc3cncc4ccccc34)c2)ccc1C(C)C [Example K-10, N-(4-Isopropyl-3-methyl-phenyl)-4-fluoro-3-(Isoquinolin-4-yl)methoxy-benzamide] |
|  | 2.21 | 40 | Cc1ccc2cc(NC(=O)c3cccc(SCc4cc(Nc5ccccc5)n[nH]4)c3)ccc2n1 [Example E-1, N-(2-methyl-quinolin-6-yl)-3-[{5-(phenylamino)-2-H-pyrazol-3-yl}methylsulfanyl]benzamide] |
